From article PMC7617456, “Cryptosporidium lysyl-tRNA synthetase inhibitors define the interplay between solubility and permeability required to achieve efficacy” (Science translational medicine, 2024)
≈ marks a conversion by molar mass, not a printed value. Like-named read-outs stand apart in the source and are kept apart here.

Tests used:
[1] = Biopharmaceutical Classification System (BCS) categorization; assay type: physicochemical; conditions: cut-offs solubility 100 μM, permeability 30 nm/s; Table S1 prints 1-4 for I-IV
Description: To investigate our key parameters, solubility and permeability, we used the Biopharmaceutical Classification System (BCS)([13]) to categorize our tool compounds in a methodical way. […] Restricting either of these properties is likely to have a rate-determining effect on absorption (Class II, purple; Class III, teal). Using the BCS to prioritize compounds for in vivo studies allowed us to systematically examine these individual property combinations and determine whether modulating solubility or permeability influenced compound efficacy. Our hypothesis was that slow absorption due to suboptimal solubility or permeability (i.e. Class II or Class III) would maximize compound concentration at the biophase following a single oral dose.
(A) Schematic of Biopharmaceutical Classification System (BCS). (B) Aqueous solubility and Parallel Artificial Membrane Permeability Assay (PAMPA) measurements of tool compounds from each BCS class. Data are means of two technical replicates. Solubility and permeability cut-offs were defined at 100 μM and 30 nm/s respectively. Raw data reported for all tool compounds in Table S1. (C) NOD SCID Gamma mice were infected with wild type C. parvum. Vehicle, positive control, or tool compound was administered via oral gavage starting day 7 post infection (PI) for 7 days (gray box indicates treatment period). Fecal samples were collected on days indicated by arrows. Fecal samples were collected from individual mice (4 animals per treatment group) and analyzed by qPCR to quantify parasite shedding (oocysts/g). (D) Log reduction in oocyst shedding measured on day 14 PI vs day 21 PI for tool compounds (colored by BCS class) dosed orally at either 30 or 50 mg/kg twice a day (BID) for 7 days in NOD SCID Gamma mice. […] Mean oocyst shedding was determined for each group of n=4 mice, for all compounds tested. Log reduction in oocyst shedding was calculated as log (mean oocysts on day 7) – log (mean oocysts on day 14 or 21).

PAMPA permeability = assay type: in vitro ADME; conditions: for Papp at 5 h, 10 µM: PAMPA, pH 7.4, pH 7.4; for PAMPA Papp: pH 7.4
Description: Solubility test samples were prepared by adding 5 μL stock to PBS pH 7.4 (195 μL). […] […] vacuum […] (Millipore Multiscreen HTS fi lter, 96-well format) to remove any undissolved material. The […] analyzed for dissolved drug compound using a truncated UHPLC methodology. A calibration solution was prepared for each test compound. […] Aliquots of the test sample […] (0.4 and 5.0 μL) were injected onto the UHPLC system and the resultant test compound peak areas quantifi ed […] PAMPA per meability As previously described.(28) The permeability assay was performed using a 96-well precoated BD Gentest PAMPA plate (BD Biosciences). Each well was divided into two chambers: donor and acceptor, separated by a lipid-oil-lipid trilayer constructed in a porous fi lter. […] Stock solutions (5 mM) of the compound were prepared in DMSO. […] The compound dissolved in phosphate buffered saline was added to the donor side of the membrane, and phosphate-buffered saline without the compound was added to the acceptor side. The PAMPA plate was left at room temperature for 5 h then an aliquot (100 μL) was removed from both acceptor and donor compartments and mixed with acetonitrile (80 μL) containing an internal standard: donepezil at 50 ng/mL. The samples were centrifuged (10 min, 5 °C, 3270×g) to sediment lipids and sealed prior to UPLC-MS/MS analysis using a Quattro Premier XE (Waters Corp, USA). Recovery of the compound from donor and acceptor wells was calculated, and data were only accepted when recovery exceeded 70%.

C. parvum = assay: microbe, parasite or virus in culture; assay type: cell-based, Cryptosporidium parvum
[2] = Aqueous (kinetic) solubility by UHPLC; assay type: physicochemical; conditions: PBS pH 7.4, UHPLC
Description: As previously described.(27) […]
samples were prepared by adding 5 µL stock to PBS pH 7.4 (195 µL). This solution was mixed […]
The solubility test samples were […]
vacuum ﬁ ltered (Millipore Multiscreen HTS ﬁ lter, 96-well format) to remove any undissolved […]
material. The ﬁ ltrate was analyzed for dissolved drug compound using a truncated UHPLC […]
methodology. A calibration solution was prepared for each test compound. The 10 mM stock […]
solution was diluted in DMSO to give a 500 µM solution. This was further diluted with 50:50 […]
acetonitrile:water to give a 50 µM solution. Aliquots (0.2, 2.0, and 5.0 µL) of this 50 µM solution were injected onto the UHPLC system, and the areas of the resultant peaks were […]
integrated to produce a calibration line. Aliquots of the test sample ﬁ ltrate (0.4 and 5.0 µL) […]
were injected onto the UHPLC system and the resultant test compound peak areas quantiﬁ ed […]
using the calibration line. […]

[3] = Cryptosporidium parvum, HCT-8, 48 h, read-out: C. parvum EC50, co-cultured with HCT-8 cells for 48 hrs
[4] = Cryptosporidium parvum, HCT-8, read-out: C. parvum EC90
[5] = 25 °C, aqueous buffer, kinetic from dmso stock
[6] = calculated from the average EC50 and hill slope, read-out: C. parvum EC90
[7] = co-cultured with HCT-8 cells for 48 hrs, read-out: C. parvum EC50

Row | Structure (SMILES) | BCS Class [1] | Papp at 5 h, 10 µM (PAMPA permeability) [×10⁻⁶ cm/s] | EC50 (C. parvum; [3]) [nM] | EC90 (C. parvum; [4]) [nM] | solubility at 24 h [2, 5] [µM] | PAMPA Papp (PAMPA permeability) [×10⁻⁶ cm/s] | EC90 (C. parvum; [6]) [nM] | EC50 (C. parvum; [7]) [nM] | solubility at 24 h [2] [µM]
1 | Nc1cc(F)cc2c(=O)cc(C(=O)NCC3(O)CCCCC3)oc12 [DDD229] | 4 | 1.9 | 30 | 80 | 1.9 (≈ 0.635 µg/mL) | – | – | – | –
2 | O=C(NCC1(F)CCCCC1)c1cc(=O)c2ccc(F)c(O)c2o1 [DDD993] | 1 | 6.3 | 100 | 150 | 234 (≈ 78.9 µg/mL) | – | – | – | –
3 | O=C(NCC1CCCCC1)c1cc(=O)c2ccc(F)c(O)c2o1 [DDD714] | 1 | 4.3 | 30 | 50 | 377 (≈ 120 µg/mL) | – | – | – | –
4 | O=C(NCC1(O)CCCCC1)c1cc(=O)c2ccc(F)c(O)c2o1 [DDD844] | 4 | 0.17 | 170 | 460 | 63 (≈ 21.1 µg/mL) | – | – | – | –
5 | COc1cc(NS(=O)(=O)CCN2CCCC2)c2oc(C(=O)N[C@@H](C)C3CCCCC3)cc(=O)c2c1 [DDD582] | 3 | 1.6 | 150 | 370 | 225 (≈ 114 µg/mL) | – | – | – | –
6 | O=C(NCC1CCCCO1)c1cc(=O)c2ccc(F)c(O)c2o1 (stereo not shown) [DDD695] | 3 | 1.1 | 80 | 180 | 236 (≈ 75.8 µg/mL) | – | – | – | –
7 | COc1ccc2oc(C(=O)NCC3(O)CCCCC3)cc(=O)c2c1 [DDD583] | 2 | 11.5 | 140 | 330 | 33 (≈ 10.9 µg/mL) | – | – | – | –
8 | Cc1nc(N)nc2c1C(=O)N(C[C@@H]1CCC[C@H](C(F)(F)F)C1)C2 [DDD478] | 2 | – | – | – | – | 13.8 | 40 | 20 | 57 (≈ 18.7 µg/mL)
9 | Nc1nc2c(c(C(F)F)n1)C(=O)N(C[C@@H]1CCC[C@H](C(F)(F)F)C1)C2 [DDD352] | 2 | – | – | – | – | 19.3 | 60 | 20 | 32 (≈ 11.7 µg/mL)
10 | O=C(NCC1CCCCC1)c1cc(=O)c2cc(F)c(F)c(O)c2o1 [DDD690] | 1 | 3.2 | 190 | 370 | 226 (≈ 76.2 µg/mL) | – | – | – | –
11 | Nc1nc2c(c(C(F)(F)F)n1)C(=O)N(CC1CCCC3(CC3)C1)C2 (stereo not shown) [DDD909] | 2 | – | – | – | – | 17.4 | 130 | 70 | 14 (≈ 4.76 µg/mL)
